Measurements as given in patent US20020055528A1, “Artemisinin analogs having antimalarial, antiproliferative, and antitumor activities and chemoselective methods of making the same” (priority 1999, published 2002).
Where two headings read alike, the source gives them in different places.

Key:
[1] = system: chloroquine-sensitive P. falciparum (NF54); test: Antimalarial screening, [3H]hypoxanthine incorporation; format: cell-based, Plasmodium falciparum
Method: Activity was determined by measuring the incorporation of [^3H]hypoxanthine, by the methods of Desjardins and Milhouse, with the following modifications, see […].; Haynes, […]. Antimicrob. Agents Chemother., 16: 710 (1979); Milhous, W. K.; Weatherly, […].; Antimicrob. Agents Chemother., 27: 525 (1985). […] Calbiochem #391338), 27 mM NaHCO3 (Gibco BRL # 11810-025), and 10% heat-inactivated human type O+serum (Interstate Blood Bank, Inc.), under 3% O2, 4% CO2, and 93% N2-Parasitemia was maintained at 0.05-3% and doubling time at approximately 15 hours by twice weekly change of medium and replenishment with fresh erythrocytes. […] Sigma-Aldrich #27,043-1). DMSO solutions were diluted 500-fold in medium, serially diluted in 0.2% DMSO in medium (to maintain constant solvent concentration), then 100 μL aliquots were pipetted into microtiter plate wells (Costar3595). […] Cells were harvested (Brandel MB-48R) onto GF-C glass filters (Brandel). The filters were washed five times with 3 mL water per sample spot, dried under a heat lamp, and counted (Beckman Model LS-6500) in scintillation cocktail (ICN Cytoscint). Decays per minute (dpm) values were downloaded and analyzed (Power Macintosh 7200/90; Microsoft Excel 5.0), to yield the mean and standard deviation at each drug concentration.

[2] = in vivo; cited from earlier work
P. berghei = settings: P. berghei-infected mice; cited from earlier work
[3] = rat liver microsomes; cited from earlier work
[4] = system: murine keratinocyte cell line PE; test: Growth inhibition of PE cells, MTT assay; format: cell-based; settings: 96 hours
Method: To determine the inhibitory effect of the compositions of the present invention on cell proliferation, screening assays were performed on a murine keratinocyte cell line PE. Cell line PE was chosen for its particular sensitivity to the induction of omithine decarboxylase (ODC) activity by the extensively characterized tumor promoter TPA. Cell line PE was derived from a papilloma-induced in female SENCAR mice by a standard skin initiation/promotion protocol, see Yuspa, S. H., et al., Carcinogenesis, 7:949-958 (1986). PE cell culture medium consisted of Eagle's minimal essential medium without calcium chloride (Whittaker Bioproducts, Walkersville, Mass.) supplemented with 8% chelexed fetal calf serum and 1% antibiotic-antimycotic (Gibco BRL) and the addition of CaCI2 to 0.05 mM Ca^++
MTT [3-(4,5-dimethylthiazol-2-yl)-2,5-diphenyltetraxolium bromide] was purchased from Sigma Chemical Co. (St. Louis, Mo.), and TPA was supplied by L.C. Services (Woburn, Mass.). L-[^14C]omithine ([…]) was from Amersham/Searle Corp. (Arlington Heights, Ill.). Chemical solvents used in all assays of biological activity were of the highest grade commercially available.
Growth curves, shown in FIG. 5, for PE cells treated with calcitriol and the C-10 carbon-substituted dimers VII-f, VII-g and VII-h generated by assay for the reduction of the tetrazolium-based compound MTT, see Charmichael, et al., Cancer Res., 47:936-942 (1987). A mitochondrial dehydrogenase reduces MTT to a blue formazan product with an absorbance maximum of 505 nm in DMSO; the number of viable cells can thus be determined spectrophotometrically. PE cells were seeded at a density of 5,000 cells/well in 50 IL of medium into 96-well microtiter plates. Twelve hours later, the medium was removed, and cells were treated with 100 μL of fresh medium into which the appropriate amount of calcitriol or analog dissolved in dimethyl sulfoxide (DMSO) had been added, with the concentration of DMSO held constant at 0.1 %. […] At 24-hour intervals following the initial treatment of the cells with compounds, 0.1 mg (50 μL of a 2 mg/mL solution) of MTT was added to each well. After 4 hours, the MTT was removed and DMSO added to dissolve the blue formazan dye. Using a microtiter plate reader, the A505 was then determined and cell number calculated from blank-subtracted absorbance values.

[5] = chloroquine-sensitive P. falciparum (NF54), read-out: IC50
[6] = Plasmodium falciparum, NF54, chloroquine-sensitive P. falciparum (NF54), read-out: IC50

Work on 10-(Benzhydryl)anhydroartemisinin [I-5] yielded an IC50 [1, 5] of 4.5 nM.
Compound CC1=C(c2nc3ccccc3s2)OC2OC3(C)CCC4C(C)CCC1C24OO3 (stereo not drawn) [Benzo-4, 10-(2′-Benzothiazolyl)anhydroartemisinin] has an IC50 [1, 5] of 7.8 nM.
Compound CC1=C(C=Cc2ccccc2)OC2OC3(C)CCC4C(C)CCC1C24OO3 (stereo not drawn) [E-VII-c, 10-(Styryl)anhydroartemisinin] has an IC50 [1, 5] of 16 nM.
Work on CC1=C(C=Cc2ccc([N+](=O)[O-])cc2)OC2OC3(C)CCC4C(C)CCC1C24OO3 (stereo not drawn) [E-VII-d, 10-(p-Nitrostyryl)anhydroartemisinin] yielded an IC50 [1, 5] of 11 nM.
Compound CC1=C(C(=O)c2ccccc2)O[C@@H]2O[C@@]3(C)CC[C@H]4[C@H](C)CC[C@@H]1[C@@]24OO3 [I-4, 10-Benzoylanhydroartemisinin] has an IC50 [1, 6] of 4.6 nM.
In the case of C[C@H]1[C@@H](O)O[C@@H]2O[C@@]3(C)CC[C@H]4[C@H](C)CC[C@@H]1[C@@]24OO3 [II-1, dihydroartemisinin], the half-life in plasma [2] is listed as “less than two hours”.
In the case of CC1=CO[C@@H]2O[C@]3(C)CC[C@H]4[C@H](C)CC[C@@H]1[C@@]24OO3 [III], the activity in words (P. berghei) is listed as “inactive”.
Work on CC1=C(c2nccs2)O[C@@H]2O[C@@]3(C)CC[C@H]4[C@H](C)CC[C@@H]1[C@@]24OO3 [Ib, 10-(2′-Thiazolyl)anhydroartemisinin] yielded an IC50 ([1]; Plasmodium falciparum, NF54) of 14 nM.
CC1=C(C=O)O[C@@H]2O[C@@]3(C)CC[C@H]4[C@H](C)CC[C@@H]1[C@@]24OO3 [Ie, 10-Formylanhydroartemisinin] gave a melting point of 115 to 117 °C and an IC50 [1, 6] of 37 nM.
C=CC1=C(C)C2CCC(C)C3CCC4(C)OOC23C(O1)O4 (stereo not drawn) [VII-a, 10-Vinylanhydroartemisinin] gave an IC50 [1, 5] of 28 nM.
In the case of CC1=C(C=Cc2ccccc2)OC2OC3(C)CCC4C(C)CCC1C24OO3 (stereo not drawn) [Z-VII-C, 10-(Styryl)anhydroartemisinin], the IC50 [1, 5] is reported as 8.1 nM.
CC1=C(C=Cc2ccc([N+](=O)[O-])cc2)OC2OC3(C)CCC4C(C)CCC1C24OO3 (stereo not drawn) [Z-VII-d, 10-(p-Nitrostyryl)anhydroartemisinin] showed an IC50 [1, 5] of 10 nM.
In the case of CCO[C@H]1O[C@@H]2O[C@@]3(C)CC[C@H]4[C@H](C)CC[C@@H]([C@H]1C)[C@@]24OO3 [arteether], the “conversion into dihydroartemisinin (II-1)” value [3] is given as “rapidly converted”.
In the case of C=C1/C(=C\C=C2/CCC[C@]3(C)[C@@H]([C@H](C)CCCC(C)(C)O)CC[C@@H]23)C[C@@H](O)C[C@@H]1O [calcitriol, 1α, 25-dihydroxyvitamin D3, reference compound], the “viability of treated cells by trypan blue exclusion” value [4] is reported as “identical to control cells”.
